# Legend:
# Assay type in all cases: cell-based
# IL-6 = assay: Cytokine Release from Human PBMCs: IL-6; settings: LPS, 24 hours, Concentration 100 μM
# Method: (§1) Human donor blood (8 mL) was collected in sodium citrate CPT tubes and centrifuged at 1,600×g for 20 minutes at room temperature. Buffy coat containing PBMCs was collected and transferred to a 50 mL conical tube containing 30 mL of RPMI-1640 medium at room temperature (supplemented with penicillin-streptomycin). PBMCs samples were centrifuged at 400×g for 10 minutes at 10° C. The pelleted PBMCs were washed twice in 10 ml of RPMI-1640 medium (supplemented with penicillin-streptomycin), then resuspended in RPMI-1640 medium (supplemented with penicillin-streptomycin, fetal bovine serum, and L-Glutamine). PBMCs were filtered through a 70 micron mesh to remove any cellular debris. […] PBMCs in a 96-well plate were rested for 30 minutes in a 37° C., 5% CO2 incubator, then subsequently treated with 10 μI of indicated compound. After 2 hours 10 μL of LPS (0111:64) 1 mg/mL was added to test wells. After 24 hours of incubation at 37° C., 5% CO2, 100 μL of cell supernatant was collected and transferred to a 96-well plate (non-tissue treated, flat bottom). The plate was centrifuged at 350×g for 5 minutes at room temperature, and then the clear supernatant transferred to a new 96-well plate (non-tissue treated, flat bottom). The remaining cells were tested for viability using CellTiter-Glo® Luminescent Cell Viability Assay (Promega). The supernatant was analyzed for TNFα, IL-6 and IL-1β (kit […] Systems), using Luminex Immunoassay Technology (MAGPIX System).
# MIP-1β = assay: Neutrophil Chemokine Production Assay: MIP-1β; settings: human neutrophils, 12 h
# Method: (§2) A volume 25 mL of human blood was layered over 15 mL of Histopaque®-1077 and centrifuged at 500 g, R^T, for 30 min with no break applied to the centrifuge. The PBMC band and Histopaque®-1077 layer were removed leaving behind the bottom red layer which was mixed with 40 mL of 1× red blood cell (RBC) lysis buffer (Sigma-Aldrich) was and split into two 50 mL tubes. The volume for both fractions was brought to 50 mL with RBC lysis buffer, mixed by inversion, and then incubated at RT for 10 min. Solutions were centrifuged at 250 g, for 10 min at RT and the supernatant liquids removed. The reddish pellets were re-suspended in 1 mL of RBC lysis buffer and combined. The cell suspension was incubated for 5 min at RT in RBC lysis buffer. After incubation 45 mL of Hanks Balanced Salt Solution with no calcium, magnesium or phenol red (HBSS—) was added, the cell suspension was spun (250 g for 10 min at RT), and supernatant liquids were removed. The white pellet was re-suspended in 1 mL of HBSS—, and cell counts were determined. The neutrophil cell suspension was brought to a concentration of 1.11e6 cells/mL in RPMI complete (Sigma-Aldrich), and 180 μL of cell suspension was transferred to all wells within a sterile 96-well tissue culture treated plate resulting in 2.0×10^5 cells/well. […] After incubation, 10 μL of 2 μg/mL LPS solution in RPMI complete was added to each well except for control wells, which received an additional 10 μL of media. Cells were incubated for 12 h (37° C., 5% CO2), after which plates were centrifuged at 250 g, RT, for 5 min and supernatant liquids were obtained and stored at −80° C. until analyzed via Luminex® Multiplex Assay for various chemokines and cytokines. Three data points were acquired from two different blood donors and averaged.
# MIP-1α = assay: Neutrophil Chemokine Production Assay: MIP-1α; settings: human neutrophils, 12 h
# Method: as §2
# Caco-2 colonocytes = assay: Human Caco-2 Barrier Integrity Assay, Study 1; settings: Caco-2, + cytokines (TNFα, IFNγ, IL-1β), 48 hours
# Method: Caco-2 colonocytes were maintained at 37° C. and 5% CO2 in Dulbecco's Modified Eagle Medium (DMEM) and supplemented with 10% FBS, 1% NEAA, 1% penicillin-streptomycin. At 70-80% confluency, cells were trypsinized and seeded in 0.4 cm^2 transwell collagen I coated membranes with supplemented DMEM in both apical and basolateral compartments. […] After 48 hours, TEER readings were taken again and viability was measured by CellTiter 96® AQueous One Solution Cell Proliferation Assay (Promega).
# TNFα = assay: Cytokine Release from Human PBMCs: TNFα; settings: LPS, 24 hours, Concentration 100 μM
# Method: as §1
# IL-8 = assay: Neutrophil Chemokine Production Assay: IL-8; settings: human neutrophils, 12 h
# Method: as §2
# IL-1β = assay: Cytokine Release from Human PBMCs: IL-1β; settings: LPS, 24 hours, Concentration 100 μM
# Method: as §1
# naïve CD4+ T cells = assay: Human Regulatory T Cell Differentiation Assay; settings: 6 days; for Cell viability % DMSO: viability dye; for activity at 1 µM: IL-2, 1 μM
# Method: Peripheral blood mononuclear cells (PBMCs) from whole blood donated by health volunteers were separated by Ficoll-Paque gradient centrifugation and naïve CD4^+ T cells were subsequently isolated using magnet beads (EasySep™ Human Naïve CD4^+ T Cell Isolation Kit, Cambridge, Mass.). For regulatory T cell (Treg) differentiation assay, naïve CD4^+ T cells were cultured (1-10×10^4 cells) in CTS OpTmizer medium for 6 days and stimulated with 5 ng/ml TGF-β, 100 U/ml IL-2, and ImmunoCult™ Human […] T Cell Activator; Stemcell #10990) with/without our Compounds. Cell viability was determined using a viability dye (eBioscience Fixable Viability Dye eFluor 780: ThermoFisher 65-0865-14) at 1:500 dilution. The cells were gated for Treg, defined as Live, CD11c^−, CD14^−, CD19^−, CD8^−, CD4^+, CD3^+, CD25^+, FOXP3^+. Percent (%) Tregs were calculated as percentage of CD4^+, CD25^+, FOXP3^+ cells over total CD4^+ T cells. Statistical analysis was performed with GraphPad Prism Software Using One-Way ANOVA.
# [1] = Homo sapiens, 144 h, TGF-β, read-out: Treg induction % DMSO
smiles,measurement,setting,value
CCCC(=O)O [butyrate],IL6 % DMSO control,IL-6,+ ((+) 50% > <90% DMSO)
same,% MIP-1β (DMSO + LPS = 100%),MIP-1β; Conc. 500.0 μM,+++ (+++ = <50% Vehicle)
same,% MIP-1β (DMSO + LPS = 100%),MIP-1β; Conc. 1000.0 μM,+++ (+++ = <50% Vehicle)
same,% MIP-1α (Vehicle + LPS = 100%),MIP-1α; Conc. 500.0 μM,+++ (+++ = <50% Vehicle)
same,% MIP-1α (Vehicle + LPS = 100%),MIP-1α; Conc. 1000.0 μM,+++ (+++ = <50% Vehicle)
same,% Change in TEER from DMSO,Caco-2 colonocytes; 1 mM,− (<125%: −)
same,% Change in TEER from DMSO,Caco-2 colonocytes; 3 mM,− (<125%: −)
same,% Change in TEER from DMSO,Caco-2 colonocytes; 5 mM,++ (150% > <200%: ++)
same,TNFα % of DMSO control,TNFα,++ ((++) <50% DMSO)
same,% IL-8 (Vehicle + LPS = 100%),IL-8; Conc. 500.0 μM,++ (++ = <70% Vehicle)
same,% IL-8 (Vehicle + LPS = 100%),IL-8; Conc. 1000.0 μM,++ (++ = <70% Vehicle)
same,IL1β % DMSO control,IL-1β,− ((−) >110% DMSO)
O=c1c(O)c(-c2ccc(O)c(O)c2)oc2cc(O)cc(O)c12 [quercetin],Cell viability % DMSO,naïve CD4+ T cells; 100 nM,= (90% > <110%: =)
same,Cell viability % DMSO,naïve CD4+ T cells; 1 μM,= (90% > <110%: =)
same,activity at 0.1 µM,"naïve CD4+ T cells; Homo sapiens, 144 h, TGF-β, IL-2, 100 nM, read-out: Treg induction % DMSO",90 to 110%
same,activity at 1 µM,naïve CD4+ T cells; [1],90 to 110%
same,IL6 % DMSO control,IL-6,+ ((+) 50% > <90% DMSO)
same,% MIP-1β (DMSO + LPS = 100%),MIP-1β; Conc. 0.1 μM,− (− = >90% Vehicle)
same,% MIP-1β (DMSO + LPS = 100%),MIP-1β; Conc. 1.0 μM,− (− = >90% Vehicle)
same,% MIP-1α (Vehicle + LPS = 100%),MIP-1α; Conc. 0.1 μM,− (− = >90% Vehicle)
same,% MIP-1α (Vehicle + LPS = 100%),MIP-1α; Conc. 1.0 μM,− (− = >90% Vehicle)
same,% Change in TEER from DMSO,Caco-2 colonocytes; 100 nM,− (<125%: −)
same,% Change in TEER from DMSO,Caco-2 colonocytes; 1 μM,+ (125% > <150%: +)
same,TNFα % of DMSO control,TNFα,+ ((+) 50% > <90% DMSO)
same,% IL-8 (Vehicle + LPS = 100%),IL-8; Conc. 0.1 μM,− (− = >90% Vehicle)
same,% IL-8 (Vehicle + LPS = 100%),IL-8; Conc. 1.0 μM,− (− = >90% Vehicle)
same,IL1β % DMSO control,IL-1β,+ ((+) 50% > <90% DMSO)
Oc1ccc(C=Cc2cc(O)cc(O)c2)cc1 [resveratrol],Cell viability % DMSO,naïve CD4+ T cells; 1 μM,− (<90%: −)
same,Cell viability % DMSO,naïve CD4+ T cells; 10 μM,− (<90%: −)
same,activity at 1 µM,naïve CD4+ T cells; [1],110 to 130%
same,activity at 10 µM,"naïve CD4+ T cells; Homo sapiens, 144 h, TGF-β, IL-2, 10 μM, read-out: Treg induction % DMSO",110 to 130%
same,IL6 % DMSO control,IL-6,+ ((+) 50% > <90% DMSO)
same,% MIP-1β (DMSO + LPS = 100%),MIP-1β; Conc. 10.0 μM,++ (++ = <70% Vehicle)
same,% MIP-1α (Vehicle + LPS = 100%),MIP-1α; Conc. 10.0 μM,+ (+ = <90% Vehicle)
same,% Change in TEER from DMSO,Caco-2 colonocytes; 10 μM,− (<125%: −)
same,% Change in TEER from DMSO,Caco-2 colonocytes; 100 μM,+++ (200%>: +++)
same,TNFα % of DMSO control,TNFα,+ ((+) 50% > <90% DMSO)
same,% IL-8 (Vehicle + LPS = 100%),IL-8; Conc. 10.0 μM,− (− = >90% Vehicle)
same,IL1β % DMSO control,IL-1β,= ((=) 90% > <110% DMSO)
CC(O)CC(=O)O (stereo not drawn) [β-hydroxybutyrate],IL6 % DMSO control,IL-6,= ((=) 90% > <110% DMSO)
same,% Change in TEER from DMSO,Caco-2 colonocytes; 200 μM,+ (125% > <150%: +)
same,% Change in TEER from DMSO,Caco-2 colonocytes; 2 mM,− (<125%: −)
same,TNFα % of DMSO control,TNFα,− ((−) >110% DMSO)
same,IL1β % DMSO control,IL-1β,− ((−) >110% DMSO)

# From patent US20210299079A1, “MONOMETHYL FUMARATE-CARRIER CONJUGATES AND METHODS OF THEIR USE” (Flagship Pioneering Innovations V, Inc., priority 2018, published 2021)
